Test results as given in ChEMBL document CHEMBL5120914, “An O-Benzyl Phosphonamidate Prodrug of Tenofovir for the Treatment of Hepatitis B Virus Infection” (J Med Chem, 2022).

Experiments:
[1] = Cytotoxicity against human HepG2 cells assessed as reduction in cell growth incubated for 3 days by MTT assay; type: toxicity, cell-based; conditions: time 3 day
[2] = test system: Hepatitis B virus; test: Antiviral activity against Hepatitis B virus infected in human HepG2.2.15 cells assessed as inhibition of viral DNA replication measured for 9 days by FQ-PCR analysis; type: functional, organism-based; conditions: HepG2 2.2.15, 216 h
[3] = test system: Hepatitis B virus; test: Antiviral activity against Hepatitis B virus infected in human HepG2.2.15 cells assessed as inhibition of viral DNA replication at 1 uM measured after 6 days by FQ-PCR analysis relative to control; type: functional, HepG2 2.2.15; parameters: scale not given: the % may be the effect or the level left; conditions: time 6 day
[4] = test system: HepG2; test: Cytotoxicity against human HepG2 cells assessed as reduction in cell growth upto 500 uM incubated for 3 days by MTT assay; type: toxicity, cell-based; conditions: hepg2, 72 h, time 3 day
[5] = test system: Hepatitis B virus; test: Antiviral activity against Hepatitis B virus infected in ig dosed duck assessed as reduction in viral DNA replication in liver administered once daily for first 10 days followed by increase in dose administered for another 18 days; type: functional, organism-based; conditions: dose 10-40 mg/kg, time 28.0 day, DDE = dose-dependent effect
[6] = Acute toxicity in overnight fasted Kunming mouse assessed as side effects at 1.5 g/Kg, IG measured for 15 days; conditions: in vivo, po, 1500 mg/kg, 360 h, time 15 day
[7] = Acute toxicity in overnight fasted Kunming mouse assessed as heart tissue damage at 1.5 g/Kg, IG measured on day 15; conditions: in vivo, po, 1500 mg/kg
[8] = Acute toxicity in overnight fasted Kunming mouse assessed as lung tissue damage at 1.5 g/Kg, IG measured on day 15; type: tissue-based; conditions: in vivo, po, 1500 mg/kg
[9] = Drug metabolism in Sprague-Dawley rat liver assessed as AUC(0 to t) of TFV-DP at 20 mg/kg, IG meaured upto 12 hrs by HPLC-MS/MS analysis; type: ADME, organism-based; conditions: in vivo, po
[10] = Acute toxicity in overnight fasted Kunming mouse assessed as liver tissue damage at 1.5 g/Kg, IG measured on day 15; type: tissue-based; conditions: in vivo, po, 1500 mg/kg
[11] = Toxicity in duck assessed as liver hemorrhage at 2.5 to 10 mg/kg, IG administered once daily for first 10 days followed by 10 to 40 mg/kg, IG for another 18 days by hematoxyin-eosin staining based light microscopic analysis; type: organism-based; conditions: anas platyrhynchos, in vivo, po, 672 h, dose 2.5-40 mg/kg, time 28 day
[12] = test system: Hepatitis B virus; test: Antiviral activity against Hepatitis B virus infected in duck assessed as log reduction in viral DNA replication in serum at 2.5 to 10 mg/kg, IG administered once daily for first 10 days followed by 20 mg/kg, IG administered for another 18 days; type: functional; conditions: dose 2.5-20 mg/kg, time 28 day
[13] = Acute toxicity in overnight fasted Kunming mouse assessed as change in body weight at 1.5 g/Kg, IG measured for 15 days; conditions: in vivo, po, 1500 mg/kg, 360 h, time 15 day
[14] = Acute toxicity in overnight fasted Kunming mouse assessed as spleen tissue damage at 1.5 g/Kg, IG measured on day 15; type: tissue-based; conditions: in vivo, po, 1500 mg/kg
[15] = Toxicity in duck assessed as body weight loss at 2.5 to 10 mg/kg, IG administered once daily for first 10 days followed by 10 to 40 mg/kg, IG for another 18 days; type: organism-based; conditions: anas platyrhynchos, in vivo, po, 672 h, dose 2.5-40 mg/kg, time 28 day
[16] = Metabolic stability in rat plasma assessed as half life measured upto 25 mins by HPLC analysis; type: ADME, cell-free
[17] = Toxicity in duck assessed as body weight gain at 2.5 to 10 mg/kg, IG administered once daily for first 10 days followed by 10 to 40 mg/kg, IG for another 18 days; type: organism-based; conditions: anas platyrhynchos, in vivo, po, 672 h, dose 2.5-40 mg/kg, time 28 day
[18] = Acute toxicity in overnight fasted Kunming mouse assessed as animal survival at 1.5 g/Kg, IG measured for 15 days; conditions: in vivo, po, 1500 mg/kg, 360 h, time 15 day
[19] = Metabolic stability in dog plasma assessed as half life measured upto 24 hrs by HPLC analysis; type: ADME, cell-free, Canis lupus familiaris
[20] = Toxicity in duck assessed as animal survival at 2.5 to 10 mg/kg, IG administered once daily for first 10 days followed by 10 to 40 mg/kg, IG for another 18 days; type: organism-based; conditions: anas platyrhynchos, in vivo, po, 672 h, dose 2.5-40 mg/kg, time 28 day
[21] = test system: Hepatitis B virus; test: Antiviral activity against Hepatitis B virus infected in duck assessed as log reduction in viral DNA replication in serum at 2.5 to 10 mg/kg, IG administered once daily for first 10 days followed by 40 mg/kg, IG administered for another 18 days; type: functional; conditions: dose 2.5-40 mg/kg, time 28 day
[22] = test system: Hepatitis B virus; test: Antiviral activity against Hepatitis B virus infected in duck assessed as log reduction in viral DNA replication in serum at 2.5 to 10 mg/kg, IG administered once daily for first 10 days followed by 10 mg/kg, IG administered for another 18 days; type: functional; conditions: dose 2.5-10 mg/kg, time 28 day
[23] = Toxicity in duck assessed as inflammatory response in liver at 2.5 to 10 mg/kg, IG administered once daily for first 10 days followed by 10 to 40 mg/kg, IG for another 18 days by hematoxyin-eosin staining based light microscopic analysis; type: organism-based; conditions: anas platyrhynchos, in vivo, po, 672 h, dose 2.5-40 mg/kg, time 28 day
[24] = Toxicity in duck assessed as liver necrosis at 2.5 to 10 mg/kg, IG administered once daily for first 10 days followed by 10 to 40 mg/kg, IG for another 18 days by hematoxyin-eosin staining based light microscopic analysis; type: organism-based; conditions: anas platyrhynchos, in vivo, po, 672 h, dose 2.5-40 mg/kg, time 28 day
[25] = Metabolic stability in human plasma assessed as half life measured upto 24 hrs by HPLC analysis; type: ADME, cell-free
[26] = Acute toxicity in overnight fasted Kunming mouse assessed as kidney tissue damage at 1.5 g/Kg, IG measured on day 15; type: tissue-based; conditions: in vivo, po, 1500 mg/kg

With `CC(C)OC(=O)[C@H](C)NP(=O)(CO[C@H](C)Cn1cnc2c(N)ncnc21)OCc1ccc(C(F)(F)F)cc1` (some centres undefined) the CC50 at 72 h [1] was greater than 500 µM, the EC50 [2] was 0.147 µM and the Activity [3] was 63.45%.
Compound `CC(C)OC(=O)[C@H](C)NP(=O)(CO[C@H](C)Cn1cnc2c(N)ncnc21)OCc1cccc([N+](=O)[O-])c1` (some centres undefined) has a CC50 at 72 h [1] greater than 500 µM and an Activity [3] of 34.63%.
In the case of `Cc1ccccc1COP(=O)(CO[C@H](C)Cn1cnc2c(N)ncnc21)N[C@@H](C)C(=O)OC(C)C` (stereo in doubt; 1a-1), the Activity ([3]; 144 h, 1 µM) is reported as 62.5% and the Activity [4] is reported as “Non-Toxic”.
`CC(C)OC(=O)[C@H](C)NP(=O)(CO[C@H](C)Cn1cnc2c(N)ncnc21)OCc1ccccc1Br` (some centres undefined) gave a CC50 at 72 h [1] of 490 µM, an EC50 [2] of 0.052 µM and an Activity [3] of 80.75%.
Work on `CC(C)OC(=O)[C@H](C)NP(=O)(CO[C@H](C)Cn1cnc2c(N)ncnc21)OCc1cccc(C(F)(F)F)c1` (some centres undefined) yielded a CC50 at 72 h [1] greater than 500 µM and an Activity [3] of 35.34%.
For `Cc1cccc(COP(=O)(CO[C@H](C)Cn2cnc3c(N)ncnc32)N[C@@H](C)C(=O)OC(C)C)c1` (some centres undefined), the CC50 at 72 h [1] was greater than 500 µM, the EC50 [2] was 0.181 µM and the Activity [3] was 69.34%.
For `COC(=O)C[C@H](NP(=O)(CO[C@H](C)Cn1cnc2c(N)ncnc21)OCc1ccccc1C)C(=O)OC` (some centres undefined), the CC50 at 72 h [1] was greater than 500 µM, the EC50 [2] was 0.827 µM and the Activity [3] was 69.01%.
Work on `CC(C)OC(=O)[C@H](C)NP(=O)(CO[C@H](C)Cn1cnc2c(N)ncnc21)OCc1ccc([N+](=O)[O-])cc1` (some centres undefined) yielded a CC50 at 72 h [1] greater than 500 µM and an Activity [3] of 22.15%.
Compound `CC(C)OC(=O)[C@H](C)NP(=O)(CO[C@H](C)Cn1cnc2c(N)ncnc21)OCc1ccccc1Cl` (some centres undefined) has a CC50 at 72 h [1] greater than 500 µM and an Activity [3] of 42.6%.
Compound `Cc1ccccc1COP(=O)(CO[C@H](C)Cn1cnc2c(N)ncnc21)N[C@@H](Cc1ccccc1)C(=O)OC(C)C` (some centres undefined) has a CC50 at 72 h [1] greater than 500 µM, an EC50 [2] of 0.49 µM and an Activity [3] of 63.8%.
With `CC(C)OC(=O)[C@H](C)NP(=O)(CO[C@H](C)Cn1cnc2c(N)ncnc21)OCc1ccc(Cl)cc1` (some centres undefined) the CC50 at 72 h [1] was greater than 500 µM, the EC50 [2] was 0.145 µM and the Activity [3] was 67.85%.
Compound `Cc1ccccc1COP(=O)(CO[C@H](C)Cn1cnc2c(N)ncnc21)NCC(=O)OC(C)C` (some centres undefined) has a CC50 at 72 h [1] greater than 500 µM.
In the case of `Cc1ccccc1COP(=O)(CO[C@H](C)Cn1cnc2c(N)ncnc21)N[C@@H](C)C(=O)OC(C)C` (stereo in doubt; 1a) [listing 1 of 2 here], the Activity [5] is reported as “Dde”.
For `Cc1ccccc1COP(=O)(CO[C@H](C)Cn1cnc2c(N)ncnc21)N[C@@H](C)C(=O)OC(C)C` (stereo in doubt; 1a) [listing 2 of 2 here], the CC50 at 72 h [1] was greater than 500 µM, the Activity [6] was “Non-Toxic” and the Activity [7] was “Non-Toxic”. For the same compound, the Activity [8] was “Non-Toxic”, the AUCt [9] was 781.6 ng·h/g and the Activity [10] was “Non-Toxic”. For the same compound, the Activity [11] was “Non-Toxic”, the Activity [12] was 3.6 and the Activity [13] was “Non-Toxic”. For the same compound, the Activity [14] was “Non-Toxic”, the Activity [15] was “Non-Toxic” and the half-life [16] was less than 5 min. For the same compound, the Activity [17] was “Toxic”, the Activity [18] was “Non-Toxic” and the half-life [19] was greater than 24 h. For the same compound, the Activity [20] was “Non-Toxic”, the EC50 [2] was 0.024 µM and the Activity [21] was 2.9. The Activity ([3]; 144 h, 1 µM) was 81.72%, the Activity [22] was 3 and the Activity [23] was “Non-Toxic”. For the same compound, the Activity [24] was “Non-Toxic”, the half-life [25] was greater than 24 h and the Activity [26] was “Non-Toxic”.
`Cc1ccccc1COP(=O)(CO[C@H](C)Cn1cnc2c(N)ncnc21)N[C@@H](C)C(=O)OC1CCCC1` (some centres undefined) gave a CC50 at 72 h [1] greater than 500 µM and an Activity [3] of 41.01%.
`Cc1ccccc1COP(=O)(CO[C@H](C)Cn1cnc2c(N)ncnc21)N[C@@H](C)C(=O)OCC(C)(C)C` (some centres undefined) gave a CC50 at 72 h [1] greater than 500 µM and an Activity [3] of 35.22%.
Work on `Cc1ccc(COP(=O)(CO[C@H](C)Cn2cnc3c(N)ncnc32)N[C@@H](C)C(=O)OC(C)C)cc1` (some centres undefined) yielded a CC50 at 72 h [1] greater than 500 µM, an EC50 [2] of 0.186 µM and an Activity [3] of 65.32%.
`COc1ccccc1COP(=O)(CO[C@H](C)Cn1cnc2c(N)ncnc21)N[C@@H](C)C(=O)OC(C)C` (some centres undefined) showed a CC50 at 72 h [1] greater than 500 µM and an Activity [3] of 53.33%.
With `CC(C)OC(=O)[C@H](C)NP(=O)(CO[C@H](C)Cn1cnc2c(N)ncnc21)OCc1ccc(Br)cc1` (some centres undefined) the CC50 at 72 h [1] was greater than 500 µM.
